Measurements from patent US11226337B2, “Chemoproteomic profiling of protein electrophilic and oxidative post-translational modifications” (Zenagem, LLC, priority 2017, dated 2022).
Entries after “also recorded” stand apart in the source; their conditions may differ.

Columns and labels:
[1] = target: T1, SCRN3 Secernin-3 (Q0VDG4) (Homo sapiens, UniProt Q0VDG4); test: SILAC RP-ABPP; format: cell-based; details: SILAC competition, drug in place of probe 3
T1 construct: shared by both the endogenous and recombinant forms of these proteins; endogenous in cells; host or cells: HEK293T and MDA-MB-231
T1 sequence (Q0VDG4 6-424): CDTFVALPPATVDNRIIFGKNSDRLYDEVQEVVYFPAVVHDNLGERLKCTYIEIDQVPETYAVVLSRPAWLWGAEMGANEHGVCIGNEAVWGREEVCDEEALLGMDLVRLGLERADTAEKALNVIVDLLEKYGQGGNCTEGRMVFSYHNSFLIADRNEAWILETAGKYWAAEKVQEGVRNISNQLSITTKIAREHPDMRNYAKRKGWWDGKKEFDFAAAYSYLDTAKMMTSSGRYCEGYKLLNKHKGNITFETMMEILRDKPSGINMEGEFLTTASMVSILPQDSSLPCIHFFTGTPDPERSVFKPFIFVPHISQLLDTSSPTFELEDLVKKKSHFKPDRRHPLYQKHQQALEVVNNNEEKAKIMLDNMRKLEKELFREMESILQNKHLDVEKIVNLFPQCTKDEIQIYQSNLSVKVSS
Method: (§1) Modifications to this protocol included using isotopically ‘light’ and ‘heavy’ SILAC cells that were also grown to near complete confluence prior to treatment. Isotopically light cells were treated with the non-clickable hydrazine probe (at the same concentration as the probe in ‘enrichment’ experiments) or the probe in the presence of 10-fold excess non-clickable hydrazine probe as a competitor (in ‘competition’ experiments). Isotopically heavy cells were treated with the probe for both types of experiments. These treatments were performed in non-SILAC media. Following treatments, cells were washed with cold PBS to remove the probe-containing media, harvested by scraping, collected by centrifugation (1,400 g, 3 min, 4° C.), washed again by resuspension in cold PBS and frozen as pellets at −80° C. until use.
(§2) The fractionated equimolar mixture of heavy and light soluble proteomes (1-1.5 mg) was diluted to 1 mL in PBS. Click reactions were scaled accordingly (except for biotin-azide) to maintain final concentrations of 0.1 mM TBTA, 1 mM CuSO4, 100 μM biotin-azide (10 mM in DMSO) and 1 mM TCEP. The mixture was vortexed and placed on a rotator at ambient temperature for 1 hour. Sequential addition of and mixture with pre-chilled methanol (MeOH, 2 mL), chloroform (CHCl3, 0.5 mL) and PBS (1 mL) on ice quenched the reaction. The precipitated proteome was centrifuged (5,000 g, 10 min, 4° C.) to fractionate the protein interphase from the organic and aqueous solvent layers. The protein pellet was washed with cold 1:1 MeOH:CHCl3 (3×1 mL), mildly sonicated in cold 4:1 MeOH:CHCl3 (2.5 mL) and pelleted once more by centrifugation (5,000 g, 10 min, 4° C.) to ensure click reagents were efficiently removed.
(§3) Heavy and light parent ion chromatograms associated with successfully identified peptides were extracted and compared using CIMAGE software as previously described^69. At least one ion of a co-eluting heavy-light pair must be accurately identified from a fragmentation event that occurred within the retention time window (±10 min) of parent ion elution. To ensure that the correct pair of peaks is quantified, chromatograms are extracted within a 10 ppm error tolerance of the predicted m/z, the signal-to-noise ratio must be >2.5 and the ‘co-elution correlation score’ and ‘envelope correlation score’ must have R^2 values ≥0.8. In addition, peptides detected as ‘singletons,’ where only the heavy ion of a peptide pair was identified, but for which passed all other filtering parameters, are given a default assigned ratio of ‘20,’ which is defined as any measured ratio that is ≥20.
(§4) To further eliminate false positives and any stochastic variability in the data, protein ratios were then determined by the median peptide ratio derived from three or more unique quantified peptides. Protein ratios that complied with these criteria from a single experiment were then averaged with ratios acquired from ≥3 replicates to provide final values for each type of experiment in both cell lines with both probes. […] Probe targets in HEK293T and MDA-MB-231 cells represent data combined from ≥3 independent biological replicates with each cell type performed with several independent batches of synthesized probes over a period of almost two years.
(§5) Two types of experiments were performed—1) direct enrichment of probe 1-labelled proteins from heavy cells in comparison to light control cells treated with the non-clickable hydrazine (3) at the same concentration as 1 (3 mM for 0.5 h); and 2) competition experiments where both heavy and light cells were treated probe 1, but light cells were also treated with 10× competitor 3 (FIG. 3A)—in two different human cell lines (HEK293T cells and the human breast cancer cell line MDA-MB-231).

[2] = target: T2, SCRN2 Secernin-2 (Q96FV2) (Homo sapiens, UniProt Q96FV2); test: SILAC RP-ABPP; format: cell-based; details: SILAC competition, drug in place of probe 3
T2 construct: shared by both the endogenous and recombinant forms of these proteins; endogenous in cells; host or cells: HEK293T and MDA-MB-231
Method: as §1, §2, §3, §4, §5

[3] = target: T3, AMD1 S-adenosylmethionine decarboxylase (P17707) (Homo sapiens, UniProt P17707); test: SILAC RP-ABPP; format: cell-based; details: SILAC competition, drug in place of probe 3
T3 construct: shared by both the endogenous and recombinant forms of these proteins; endogenous in cells; host or cells: HEK293T and MDA-MB-231
T3 sequence (P17707 68-334 limits assumed): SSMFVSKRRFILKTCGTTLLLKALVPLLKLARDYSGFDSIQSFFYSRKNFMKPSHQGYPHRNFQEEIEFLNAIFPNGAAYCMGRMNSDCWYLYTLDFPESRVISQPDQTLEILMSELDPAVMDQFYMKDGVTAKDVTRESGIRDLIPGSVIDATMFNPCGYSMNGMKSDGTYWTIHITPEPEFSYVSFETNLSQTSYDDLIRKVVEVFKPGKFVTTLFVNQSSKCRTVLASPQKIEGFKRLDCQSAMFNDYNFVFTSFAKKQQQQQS
T3 sequence (P17707 1-67 limits assumed): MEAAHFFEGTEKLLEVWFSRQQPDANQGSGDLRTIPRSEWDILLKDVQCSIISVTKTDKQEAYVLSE
Method: as §1, §2, §3, §4, §5

LGMN Legumain (Q99538) = target: T4, LGMN Legumain (Q99538) (Homo sapiens, UniProt Q99538); test: SILAC RP-ABPP; format: cell-based; details: SILAC competition, drug in place of probe 3
T4 construct: shared by both the endogenous and recombinant forms of these proteins; endogenous in cells; host or cells: HEK293T and MDA-MB-231
T4 sequence (Q99538 18-323): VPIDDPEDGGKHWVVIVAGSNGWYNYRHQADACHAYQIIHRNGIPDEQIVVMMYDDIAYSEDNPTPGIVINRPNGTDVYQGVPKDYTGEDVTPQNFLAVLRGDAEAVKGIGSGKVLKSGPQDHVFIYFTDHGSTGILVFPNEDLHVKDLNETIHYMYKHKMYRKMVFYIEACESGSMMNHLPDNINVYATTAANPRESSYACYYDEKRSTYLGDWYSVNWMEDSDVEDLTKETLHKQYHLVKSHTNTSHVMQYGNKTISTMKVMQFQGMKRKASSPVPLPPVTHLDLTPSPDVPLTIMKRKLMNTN
Method: as §1, §2, §3, §4, §5

AMD1 = target: T5, AMD1 (Homo sapiens, UniProt P17707); test: gel-based RP-ABPP of transfected HEK293T cells; format: cell-based; details: for blocking of probe labeling by excess non-clickable probe: transfected HEK293T cells
T5 construct: Full-length genes encoding three probe 1- and one probe 2-targeted proteins were amplified from a cDNA library; expressed in transfected cells; host or cells: HEK293T
T5 sequence (P17707 68-334 limits assumed): T3 sequence (P17707 68-334 limits assumed)
T5 sequence (P17707 1-67 limits assumed): T3 sequence (P17707 1-67 limits assumed)

FTO = target: T6, FTO (Homo sapiens, UniProt Q9C0B1); test: gel-based RP-ABPP of transfected HEK293T cells; format: cell-based; details: transfected HEK293T cells
T6 construct: Full-length genes encoding three probe 1- and one probe 2-targeted proteins were amplified from a cDNA library; expressed in transfected cells; host or cells: HEK293T
Method: (§6) Soluble proteomes from treated cells were diluted to 1 mg/mL. To each sample (50 μL), a freshly prepared “click” or CuAAC reagent mixture (6 μL) containing 0.1 mM tris(benzyltriazolylmethyl)amine (TBTA) (3 μL/sample, 1.7 mM in 4:1 DMSO:t-BuOH), 1 mM CuSO4 (1 μL/sample, 50 mM in H2O), 25 μM azide-rhodamine (1 μL/sample, 1.25 mM in DMSO), and freshly prepared 1 mM tris(2-carboxyethyl)phosphine (TCEP) (1 μL/sample, 50 mM in PBS or H2O) was added to conjugate the fluorophore to probe-labelled proteins. TBTA was purchased from TCI and azide-rhodamine was synthesized as previously described^64. Upon addition of the click mixture, each reaction was immediately mixed by vortexing and then allowed to react at ambient temperature for 1 hour before quenching the reactions with SDS loading buffer (4× stock, 17 μL). Proteins (˜25 μg total protein loaded per gel lane) were resolved by SDS-PAGE (10% acrylamide) and visualized by in-gel fluorescence scanning on a Hitachi FMBIO-II or BioRad ChemiDoc MP flatbed fluorescence scanner.
(§7) Full-length genes encoding three probe 1- and one probe 2-targeted proteins were amplified from a cDNA library derived from the same low-passage HEK293T cells used for proteomic profiling. The library was generated using Ribozol RNA extraction (Amresco) and iScript reverse transcription (Bio-rad) supermix reagents. The gene products were cloned into mammalian expression vectors containing N- or C-terminal FLAG affinity tags. The gene for S-adenosyl-L-methionine decarboxylase (AMD1 or AdoMetDC) was cloned into pFLAG-CMV-sport6 (N-terminal tag) at NotI and SalI restriction sites. AMD1, Secernin-3 (SCRN3) and fat mass- and obesity-associated Fe(II)- and 20G-dependent dioxygenase (FTO) were cloned into pRK5 (C-terminal tag) at SalI and NotI restriction sites. Kelch-like ECH-associated protein-1 (Keapl) (N-terminal tag), and empty plasmids of pRK5 were gifts. Full sequences of the genes were confirmed. The proteins expressed via transient transfection in HEK293T cells contain an additional 15 amino acids appended to their N-terminal methionine residue or C-terminus (MDYKD4KLKACGR (SEQ ID NO: 43) and A3G4DYKD4K (SEQ ID NO: 44), respectively). The DYKD4K (SEQ ID NO: 42) appendage in each contains the classic FLAG epitope that permits detection by western blotting or purification by affinity chromatography. Mutants of SCRN3 were generated using QuikChange site-directed mutagenesis with primers containing the desired mutations and their respective compliments. The gene for the deletion mutant of SCRN3 with the sequence MetlCys6-SCRN3 instead of Met1 Glu2Pro3Phe4Ser5Cys6-SCRN3 (SEQ ID NO: 45) was amplified from the wild-type C-terminal FLAG-tagged construct and cloned into the same vector.
(§8) HEK293T cells were grown to ˜40% confluence under standard growth conditions passaged in the appropriate media before adding the appropriate expression vector (control cells (‘mock’) received an equal amount of the appropriate empty vector) and polyethyleneimine (PEI) ‘MAX’ (MW 40,000, Polysciences Inc.) as a transfection reagent under standard transfection conditions (3:1 vector/PEI (w/w) ratio). Cells were incubated for ˜48 h before labelling in situ. Proteomes were processed for gel- and MS-based experiments as described above and in Example 2.
(§9) After scanning fluorescence, that same gel was transferred to nitrocellulose membrane in Towbin buffer, the membrane was blocked for ˜1 hour at ambient temperature with 5% nonfat dry milk (w/v) in Tris-buffered saline with Tween 20 (TBST) and incubated with primary antibodies in the same solution overnight at 4° C. The antibodies included anti-FLAG (1:2500, F1804, Sigma), anti-AdoMetDC (1:500, sc-160951, Santa Cruz Biotechnology) and anti-His6 (1:1000, ab18184, Abcam). The blots were washed (3×5 min, TBST), incubated with secondary antibodies (1:10,000, IRDye 800CW, LICOR) in milk for 1 hour at ambient temperature, washed again (3×5 min, TBST), and visualized on a LICOR Odyssey Scanner.

KEAP1 = target: T7, KEAP1 (Homo sapiens, UniProt Q14145); test: gel-based RP-ABPP of transfected HEK293T cells; format: cell-based; details: transfected HEK293T cells
T7 construct: Full-length genes encoding three probe 1- and one probe 2-targeted proteins were amplified from a cDNA library; expressed in transfected cells; host or cells: HEK293T
Method: as §6, §7, §8, §9

SCRN3 = target: T8, SCRN3 (Homo sapiens, UniProt Q0VDG4); test: gel-based RP-ABPP of transfected HEK293T cells; format: cell-based; details: transfected HEK293T cells
T8 construct: Full-length genes encoding three probe 1- and one probe 2-targeted proteins were amplified from a cDNA library; expressed in transfected cells; host or cells: HEK293T
T8 sequence (Q0VDG4 6-424): T1 sequence (Q0VDG4 6-424)
Method: as §6, §7, §8, §9

HEK293T cells = test: gel-based in situ probe labelling (rhodamine-azide, in-gel fluorescence); format: cell-based, human; details: probe 1 3 mM, 30 min; dihydrochloride
Method: For gel-based experiments, cells were plated and grown to near complete confluence at the time of treatment. Cells were washed with cold phosphate buffered saline (PBS, pH 7.4) and replenished with serum-free DMEM (˜15% of normal passage volume, e.g. a 10 cm plate normally passaged with 10 mL media received 1.5 mL) supplemented with 10 mM Na-HEPES buffer (pH 7.5). Unless otherwise indicated, cells were incubated with probes (3 mM and 1 mM for probes 1 and 2, respectively) in the absence or presence of 10-fold excess non-clickable competitor probes (30 mM and 10 mM for 3 and 4, respectively) for 0.5 hour at 37° C. When applicable, probe and competitor were premixed before co-administering to the cells.
The cells were lysed, and the cell proteomes were conjugated to a rhodamine-azide (Rh—N3) reporter tag.
as §6

competition of probe 1 labelling by competitor drug [1] | competition of probe 1 labelling by competitor drug [2] | competition of probe 1 labelling by competitor drug [3] | competition of probe 1 labelling by competitor drug (LGMN Legumain (Q99538)) | increase of probe 1 labeling of recombinant AMD1 (AMD1; L-methionine lowered from 200 μM to 10 μM, AMD1 expression negligibly changed) | SMILES | blocking of probe labeling by excess non-clickable probe (AMD1) | blocking of probe labeling by excess non-clickable probe (FTO) | blocking of probe labeling by excess non-clickable probe (KEAP1) | blocking of probe labeling by excess non-clickable probe (SCRN3) | competition of probe 1 labelling by co-administered non-clickable probe (HEK293T cells)
Near complete loss of probe labelling | Near complete loss of probe labelling | Near complete loss of probe labelling | Near complete loss of probe labelling |  | NNCCc1ccccc1 [phenelzine, reference compound] |  |  |  |  | 
 |  |  |  |  | Cl.NNc1ccccc1 [probe 4, phenyl hydrazine hydrochloride, reference compound] | blocked | blocked | blocked | blocked | 
 |  |  |  | seven-fold | CSCC[C@H](N)C(=O)O [L-methionine] |  |  |  |  | 
almost no competition | almost no competition | almost no competition | almost no competition |  | NNC(=O)c1ccncc1 [isoniazid, reference compound] |  |  |  |  | 
 |  |  |  |  | CCCNN.Cl.Cl [probe 3, Propyl hydrazine dihydrochloride, reference compound] | blocked | blocked | blocked | blocked | suppressed by increasing concentrations; also recorded: blocks the labeling of proteins by probe 1
